From patent publication US8557844B2, “Substrate reduction therapy” (The Chancellor, Masters and Scholars of the University of …, priority 2007, dated 2013)
Entries after “also recorded” stand apart in the source; their conditions may differ.

Legend:
[1] = test system: free cholesterol storage and abnormal lipid endocytosis; settings: cited from earlier work
[2] = molecular target: T1, human α-1,3-fucosyltransferase V (Homo sapiens, UniProt Q11128); settings: in the presence of guanosine diphosphate (GDP); cited from earlier work
T1 sequence (Q11128 1-374): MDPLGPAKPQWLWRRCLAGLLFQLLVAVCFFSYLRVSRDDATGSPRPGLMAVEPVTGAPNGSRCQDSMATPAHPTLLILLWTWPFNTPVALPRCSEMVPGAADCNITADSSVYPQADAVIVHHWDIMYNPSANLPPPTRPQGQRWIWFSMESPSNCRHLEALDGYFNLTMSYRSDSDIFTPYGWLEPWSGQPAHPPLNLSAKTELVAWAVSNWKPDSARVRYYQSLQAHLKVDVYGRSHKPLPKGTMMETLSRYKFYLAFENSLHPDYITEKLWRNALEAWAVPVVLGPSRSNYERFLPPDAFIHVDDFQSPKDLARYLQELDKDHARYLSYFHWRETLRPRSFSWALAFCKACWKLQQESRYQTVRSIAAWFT

rat recombinant α-2,3-ST = settings: rat recombinant enzyme; read-out: IC(50), α-2,3-ST; cited from earlier work
rat recombinant α-2,6-ST = molecular target: T2, rat recombinant α-2,6-ST (Rattus norvegicus, UniProt P13721); settings: rat recombinant enzyme; read-out: IC(50), α-2,6-ST; cited from earlier work
T2 sequence (P13721 1-403): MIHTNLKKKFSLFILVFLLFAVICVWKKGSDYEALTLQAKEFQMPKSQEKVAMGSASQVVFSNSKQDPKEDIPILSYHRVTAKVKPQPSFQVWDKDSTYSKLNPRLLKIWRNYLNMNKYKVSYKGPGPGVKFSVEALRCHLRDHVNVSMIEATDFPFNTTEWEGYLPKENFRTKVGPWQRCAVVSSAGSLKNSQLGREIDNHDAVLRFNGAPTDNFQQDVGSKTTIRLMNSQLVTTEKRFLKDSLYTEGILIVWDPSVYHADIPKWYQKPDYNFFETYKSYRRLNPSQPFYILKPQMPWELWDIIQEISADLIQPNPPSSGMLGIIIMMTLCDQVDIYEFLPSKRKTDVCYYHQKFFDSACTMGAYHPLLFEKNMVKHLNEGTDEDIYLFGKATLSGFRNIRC

[3] = molecular target: T3, 3β-hydroxysterol Δ7-reductase (Mus musculus, UniProt O88455); settings: cited from earlier work
T3 construct: RAW mouse macrophages grown in medium supplemented with LPDS for 5 days to elevate endogenous cholesterol biosynthesis; endogenous in cells; host or cells: RAW mouse macrophages
T3 sequence (O88455 1-471): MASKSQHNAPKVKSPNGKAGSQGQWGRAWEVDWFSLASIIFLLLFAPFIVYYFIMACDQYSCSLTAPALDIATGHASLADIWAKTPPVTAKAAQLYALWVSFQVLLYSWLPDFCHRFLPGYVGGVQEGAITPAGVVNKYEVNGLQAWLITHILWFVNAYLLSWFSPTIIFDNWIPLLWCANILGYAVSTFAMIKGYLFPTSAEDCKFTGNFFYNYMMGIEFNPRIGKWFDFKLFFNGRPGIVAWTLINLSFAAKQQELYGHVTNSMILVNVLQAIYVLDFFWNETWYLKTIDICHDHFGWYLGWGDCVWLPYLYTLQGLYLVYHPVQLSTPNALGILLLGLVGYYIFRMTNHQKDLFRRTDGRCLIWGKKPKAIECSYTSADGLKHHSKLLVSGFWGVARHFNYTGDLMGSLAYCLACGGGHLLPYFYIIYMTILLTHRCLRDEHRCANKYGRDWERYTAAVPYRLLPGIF

RAW mouse macrophages [4] = assay: Cholesterol levels (filipin) in RAW cells treated with AY9944; assay type: cell-based; settings: for cholesterol levels (filipin): 1 mM AY9944 in LPDS medium
Description: (§1) RAW mouse macrophages grown in medium supplemented with LPDS for 5 days to elevate endogenous cholesterol biosynthesis were treated with […] AY9944 in medium supplemented with lipoprotein deficient serum (LPDS) for a further 5 or 10 days to induce storage of 7-DHC. […] This correlated with abnormal transport of a fluorescent GSL analogue of lactosylceramide (LacCer)—BODIPY-LacCer.
(§2) FIG. 4 consists of micrographs which together show the induction of an NPC phenotype in cholesterol null RAW cells. All RAW cells were grown in medium supplemented with LPDS for 5 days (controls) to reduce exogenously derived cholesterol prior to addition of 1 μM AY9944 to inhibit endogenous cholesterol synthesis for a further 5 days or 10 days (as indicated). Alterations in sphingolipid trafficking were measured in live cells using BODIPY-LacCer (lower panels), cholesterol levels in fixed cells were measured with filipin (upper panels). Endocytic cholesterol storage in cholesterol depleted cells was induced by growth in medium supplemented with 10% FCS for a further 24 h. For each condition n=2, images are representative of at least 10 captured fields, scale bar=5 μm.

RAW mouse macrophages [5] = assay: BODIPY-LacCer transport in RAW cells treated with AY9944; assay type: cell-based
Description: as §1, §2

sialyltransferase = settings: cited from earlier work
[6] = test system: NPC1 null (CT43) CHO cells; settings: NB-DNJ treatment; cited from earlier work
[7] = test system: NPC1 null (CT43) CHO cells; settings: NB-DNJ treatment; cited from earlier work; remark: listed apart in the source
[8] = cited from earlier work
mammalian cells = settings: liposomes of dioleoylphosphatidylethanolamine and cholesteryl hemisuccinate; cited from earlier work
GSL levels = settings: mice; cited from earlier work
[9] = interim data after 12 months of a 2-year trial; cited from earlier work
[10] = test system: peripheral blood B lymphocytes; settings: NPC patient, B cells over 6 months; cited from earlier work

Molecule: CC(C)CCC[C@@H](C)[C@H]1CC[C@H]2[C@@H]3C(=O)C=C4C[C@@H](O)CC[C@]4(C)[C@H]3CC[C@]12C [7-ketocholesterol]
- free cholesterol storage and lipid endocytosis [1]: induce free cholesterol storage and abnormal lipid endocytosis

Molecule: CCCO[C@H]1O[C@H](CO)[C@@H](O[C@@H]2O[C@H](CO)[C@H](O)[C@H](O)[C@H]2O)[C@H](OCCN2C(C)C(O)C(O)C(O)C2CO)[C@H]1NC(C)=O (stereo partly drawn) [propyl 2-acetamido-2-deoxy-4-O-(β-D-galactopyranosyl)-3-O-(2-(N-(β-L-homofuconojirimycinyl))ethyl)-α-D-glucopyranoside]
- inhibition of human α-1,3-fucosyltransferase V [2]: effective inhibitor

Molecule: cytidin-5′-yl sialylethylphosphonate
- IC50 (rat recombinant α-2,3-ST): 47 µM
- IC50 (rat recombinant α-2,6-ST): 340 µM

Molecule: CCN(CC)CCO[C@H]1CC[C@@]2(C)C(=CC[C@@H]3[C@@H]2CC[C@]2(C)C(=O)CC[C@@H]32)C1 [Compound U18666A]
- free cholesterol storage and lipid endocytosis [1]: induce free cholesterol storage and abnormal lipid endocytosis
- induction of NPC1 phenotype [1]: can induce an NPC1 phenotype

Molecule: CN(C)CCCN1c2ccccc2CCc2ccccc21 [imipramine]
- free cholesterol storage and lipid endocytosis [1]: induce free cholesterol storage and abnormal lipid endocytosis

Molecule: Clc1ccccc1CNCC1CCC(CNCc2ccccc2Cl)CC1 (centres unmarked) [AY9944]
- 7-DHC level [3]: accumulation of 7-DHC
- cholesterol levels (filipin) (RAW mouse macrophages [4]; 5 days): slight decrease in cholesterol levels
- cholesterol levels (filipin) (RAW mouse macrophages [4]; 10 days): markedly reduced
- localisation of exogenously derived cholesterol (RAW mouse macrophages [4]; 10 day AY9944, then medium with 10% FCS): exogenously derived cholesterol became trapped in punctate LE
- BODIPY-LacCer transport (RAW mouse macrophages [5]; 5 days post AY9944, 30 min pulse, 90 min chase): transported to the Golgi
- BODIPY-LacCer transport (RAW mouse macrophages [5]; 10 days post AY9944): trapped in punctate LE/Lys

Molecule: C[C@@H]1O[C@@H](O[C@H]2[C@H](O[C@H]3[C@H](O[C@H]4CC[C@@]5(C)[C@@H](CC[C@]6(C)[C@@H]5CC=C5[C@@H]7CC(C)(C)C[C@@H](O)[C@]7(C)CC[C@]56C)[C@@]4(C)CO)O[C@H](C(=O)O)[C@@H](O)[C@@H]3O)O[C@H](CO)[C@H](O)[C@@H]2O)[C@H](O)[C@H](O)[C@H]1O [Soyasaponin I]
- sialyltransferase inhibition (sialyltransferase): potent and specific sialyltransferase inhibitor

Molecule: CC(=O)[C@H]1CC[C@H]2[C@@H]3CCC4=CC(=O)CC[C@]4(C)[C@H]3CC[C@]12C [progesterone]
- free cholesterol storage and lipid endocytosis [1]: induce free cholesterol storage and abnormal lipid endocytosis
- induction of NPC1 phenotype [1]: can induce an NPC1 phenotype

Molecule: CCCCN1C[C@H](O)[C@@H](O)[C@H](O)[C@H]1CO [NB-DNJ, N-butyldeoxynojirimycin]
- endocytosis in NPC1 cells [6]: corrects abnormal endocytosis
- GSL storage in NPC1 cells [7]: reduction in GSL storage in the endo/lysosomal system; also recorded: lowers GSL storage in NPC1 cells to control levels
- neurological side effects ([8]; adult mice): not to cause neurological side effects
- CNS penetration ([8]; mouse, in vivo): penetrate the CNS
- effects on behaviour or CNS development ([8]; mouse, in vivo): without significant effects on behaviour or CNS development
- factor by which liposomes reduced the required dose (mammalian cells): 1000
- decrease in GSL levels (onset) (GSL levels): measurable decrease in GSL levels within a day of treatment
- treatment time after which effect on GSL levels stabilizes (GSL levels): 10 days
- clinical benefit, saccadic eye movement [9]: stabilization or improvement in saccadic eye movement
- endosomal uptake [10]: improved endosomal uptake
- lipid trafficking in peripheral blood B lymphocytes [10]: greatly improved
- pathological lipid storage [10]: reduced
- total late endosomal/lysosomal compartment [10]: almost normalised
